Assay results taken from PMC11243320, “Tailoring Fibroblast-Activation Protein Targeting for Theranostics: A Comparative Preclinical Evaluation of the ^68Ga- and ^177Lu-Labeled Monomeric and Dimeric Fibroblast-Activation Protein Inhibitors DOTA.SA.FAPi and DOTAGA.(SA.FAPi)2” (Molecules, 2024).

Columns and labels:
PC3 tumor-bearing mice = experiment: Ex vivo biodistribution of 177Lu-labeled radiotracers in PC3 xenografts; settings: for Biodistribution Blood / Biodistribution Bone / Biodistribution Heart / Biodistribution Intestine / Biodistribution Kidney / Biodistribution Liver / Biodistribution Lung / Biodistribution Muscle / Biodistribution PC3-Tumor / Biodistribution Pancreas / Biodistribution Spleen / Biodistribution Stomach / Tumor/Blood ratio / Tumor/Liver ratio / Tumor/Muscle ratio / Tumor/Pancreas ratio: PC3 xenografts
Method: U87MG and PC3 tumor-bearing mice: Female athymic BALB/c (6 weeks/16–20 g) and male athymic BALB/c nude mice (6 weeks/20–25 g) were implanted with U87MG or PC3 cells (5 × 10^6/100 µL PBS) into their right shoulder, respectively. The animals were used for biodistribution and PET/SPECT/CT imaging studies (Animal License No: BE98/2021).
Ten pmol (0.06–0.08 MBq) of the radiotracers in 100 µL of NaCl 0.9% were injected intravenously into the tail vein of PC3 tumor-bearing mice. Biodistribution studies were conducted at 1, 4, 24, and 48 h after the injection of [^177Lu]Lu-DOTA.SA.FAPi and at 4, 24, 48, 72, and 96 h after the injection of [^177Lu]Lu-DOTAGA.(SA.FAPi)2 (Supplemental Data). […]
was counted in a γ-counter. Biodistribution data are given as the percent of injected activity per gram of tissue (% IA/g) and as means ± SD (n = 4). […]
[177Lu]Lu-DOTA.SA.FAPi and [177Lu]Lu-DOTAGA.(SA.FAPi)2
Ten pmol (0.06-0.08 MBq) of [177Lu]Lu-monomer and [177Lu]Lu-dimer in 100 µL of NaCl 0.9% were injected intravenously into the tail vein of PC3 tumor-bearing mice. The PC3 tumor-bearing mice were used between the 15th and 17th day after the xenograft implantation and its size was 281 ± 75 mm3. Animals were terminally anesthetized by intraperitoneal injection of an overdose of pentobarbital natrium (150 mg/kg; Streuli Pharma SA, Uznach, Switzerland) 1, 4, 24 and 48 h after the injection of [177Lu]Lu-DOTA.SA.FAPi and at 4, 24, 48, 72 and 96 h after the injection of [177Lu]Lu-DOTAGA.(SA.FAPi)2. The organs of interest were dissected and weighed, and the radioactivity in the tissue samples was counted in a γ-counter. The biodistribution data are given as the percent of injected activity per gram of tissue (% IA/g) and as means ± SD (n = 4). […]
0.25mm. The reconstructed data were corrected for Lutetium-177 decay, normalized, and filtered using a Gaussian 3D algorithm with a 2 mm isotropic kernel and generated using PMOD software. […]
The color scale of […]
the SPECT images was set as 0 to 13% IA/mL allowing for qualitative comparisons among the images.

healthy mice = experiment: Biodistribution in healthy male and female mice; assay type: in vivo; settings: 1 h p.i.
Method: Two groups of healthy mice (males and females; n = 4/group) were injected with 10 pmol of [^68Ga]Ga-DOTA.SA.FAPi (0.08–0.1 MBq) in 100 µL of NaCl 0.9% and biodistribution studies were conducted at 1 h p.i. (Supplemental Data).

N#C[C@@H]1CC(F)(F)CN1C(=O)CNC(=O)c1ccnc2ccc(OCCCCNc3c(NCCNC(=O)CN4CCN(CC(=O)[O-])CCN(CC(=O)[O-])CCN(CC(=O)[O-])CC4)c(=O)c3=O)cc12.[177Lu+3] [[^177Lu]Lu-DOTA.SA.FAPi]
PC3 tumor uptake (PC3 tumor-bearing mice; PC3 tumor-bearing mice, 4 h p.i.): 8.9 ± 0.2 %I.A./g | Biodistribution Blood (PC3 tumor-bearing mice; 1 h): 9.1 ± 1.8 % IA/g | Biodistribution Bone (PC3 tumor-bearing mice; 1 h): 4.0 ± 0.5 % IA/g | Biodistribution Heart (PC3 tumor-bearing mice; 1 h): 3.1 ± 0.7 % IA/g | Biodistribution Intestine (PC3 tumor-bearing mice; 1 h): 3.2 ± 0.4 % IA/g | Biodistribution Kidney (PC3 tumor-bearing mice; 1 h): 4.3 ± 0.5 % IA/g | Biodistribution Liver (PC3 tumor-bearing mice; 1 h): 3.8 ± 0.2 % IA/g | Biodistribution Lung (PC3 tumor-bearing mice; 1 h): 4.3 ± 0.6 % IA/g | Biodistribution Muscle (PC3 tumor-bearing mice; 1 h): 3.7 ± 1.0 % IA/g | Biodistribution PC3-Tumor (PC3 tumor-bearing mice; 1 h): 9.6 ± 0.9 % IA/g | Biodistribution Pancreas (PC3 tumor-bearing mice; 1 h): 12 ± 1.1 % IA/g | Biodistribution Spleen (PC3 tumor-bearing mice; 1 h): 3.0 ± 0.1 % IA/g | Biodistribution Stomach (PC3 tumor-bearing mice; 1 h): 2.5 ± 0.3 % IA/g | Tumor/Blood ratio (PC3 tumor-bearing mice; 1 h): 1.1 | Tumor/Liver ratio (PC3 tumor-bearing mice; 1 h): 2.2 ± 0.2 | Tumor/Muscle ratio (PC3 tumor-bearing mice; 1 h): 2.8 ± 1.0 | Tumor/Pancreas ratio (PC3 tumor-bearing mice; 1 h): 0.8 ± 0.1 | Biodistribution Blood (PC3 tumor-bearing mice; 4 h): 3.1 ± 0.2 % IA/g | Biodistribution Bone (PC3 tumor-bearing mice; 4 h): 4.2 ± 0.6 % IA/g | Biodistribution Heart (PC3 tumor-bearing mice; 4 h): 1.5 ± 0.3 % IA/g | Biodistribution Intestine (PC3 tumor-bearing mice; 4 h): 1.8 ± 0.3 % IA/g | Biodistribution Kidney (PC3 tumor-bearing mice; 4 h): 2.6 ± 0.03 % IA/g | Biodistribution Liver (PC3 tumor-bearing mice; 4 h): 3.0 ± 0.1 % IA/g | Biodistribution Lung (PC3 tumor-bearing mice; 4 h): 1.7 ± 0.07 % IA/g | Biodistribution Muscle (PC3 tumor-bearing mice; 4 h): 2.3 ± 0.1 % IA/g | Biodistribution PC3-Tumor (PC3 tumor-bearing mice; 4 h): 8.9 ± 0.2 % IA/g | Biodistribution Pancreas (PC3 tumor-bearing mice; 4 h): 5.3 ± 0.4 % IA/g | Biodistribution Spleen (PC3 tumor-bearing mice; 4 h): 1.7 ± 0.1 % IA/g | Biodistribution Stomach (PC3 tumor-bearing mice; 4 h): 1.7 ± 0.5 % IA/g | Tumor/Blood ratio (PC3 tumor-bearing mice; 4 h): 2.9 ± 0.2 | Tumor/Liver ratio (PC3 tumor-bearing mice; 4 h): 3.0 ± 0.1 | Tumor/Muscle ratio (PC3 tumor-bearing mice; 4 h): 3.9 ± 0.1 | Tumor/Pancreas ratio (PC3 tumor-bearing mice; 4 h): 1.7 ± 0.2 | Biodistribution Blood (PC3 tumor-bearing mice; 24 h): 0.2 ± 0.09 % IA/g | Biodistribution Bone (PC3 tumor-bearing mice; 24 h): 0.7 ± 0.2 % IA/g | Biodistribution Heart (PC3 tumor-bearing mice; 24 h): 0.1 ± 0.04 % IA/g | Biodistribution Intestine (PC3 tumor-bearing mice; 24 h): 0.2 ± 0.02 % IA/g | Biodistribution Kidney (PC3 tumor-bearing mice; 24 h): 0.6 ± 0.06 % IA/g | Biodistribution Liver (PC3 tumor-bearing mice; 24 h): 1.9 ± 0.3 % IA/g | Biodistribution Lung (PC3 tumor-bearing mice; 24 h): 0.2 ± 0.03 % IA/g | Biodistribution Muscle (PC3 tumor-bearing mice; 24 h): 0.3 ± 0.04 % IA/g | Biodistribution PC3-Tumor (PC3 tumor-bearing mice; 24 h): 1.8 ± 0.1 % IA/g | Biodistribution Pancreas (PC3 tumor-bearing mice; 24 h): 0.3 ± 0.1 % IA/g | Biodistribution Spleen (PC3 tumor-bearing mice; 24 h): 0.2 ± 0.03 % IA/g | Biodistribution Stomach (PC3 tumor-bearing mice; 24 h): 0.1 ± 0.02 % IA/g | Biodistribution Blood (PC3 tumor-bearing mice; 48 h): 0.01 ± 0.0 % IA/g | Biodistribution Bone (PC3 tumor-bearing mice; 48 h): 0.1 ± 0.01 % IA/g | Biodistribution Heart (PC3 tumor-bearing mice; 48 h): 0.03 ± 0.02 % IA/g | Biodistribution Intestine (PC3 tumor-bearing mice; 48 h): 0.04 ± 0.0 % IA/g | Biodistribution Kidney (PC3 tumor-bearing mice; 48 h): 0.12 ± 0.07 % IA/g | Biodistribution Liver (PC3 tumor-bearing mice; 48 h): 1.1 ± 0.1 % IA/g | Biodistribution Lung (PC3 tumor-bearing mice; 48 h): 0.05 ± 0.04 % IA/g | Biodistribution Muscle (PC3 tumor-bearing mice; 48 h): 0.05 ± 0.07 % IA/g | Biodistribution PC3-Tumor (PC3 tumor-bearing mice; 48 h): 1.0 ± 0.1 % IA/g | Biodistribution Pancreas (PC3 tumor-bearing mice; 48 h): 0.06 ± 0.01 % IA/g | Biodistribution Spleen (PC3 tumor-bearing mice; 48 h): 0.1 ± 0.06 % IA/g | Biodistribution Stomach (PC3 tumor-bearing mice; 48 h): 0.05 ± 0.02 % IA/g

N#C[C@@H]1CC(F)(F)CN1C(=O)CNC(=O)c1ccnc2ccc(OCCCCNc3c(NCCNC(=O)CN4CCN(CC(=O)[O-])CCN(CC(=O)[O-])CCN(CC(=O)[O-])CC4)c(=O)c3=O)cc12.[68Ga+3] [[^68Ga]Ga-DOTA.SA.FAPi]
Biodistribution Blood (healthy mice; healthy female mice): 13.5 ± 4.1 % IA/g | Biodistribution Bone (healthy mice; healthy female mice): 5.0 ± 0.2 % IA/g | Biodistribution Heart (healthy mice; healthy female mice): 5.1 ± 0.9 % IA/g | Biodistribution Intestine (healthy mice; healthy female mice): 3.0 ± 0.3 % IA/g | Biodistribution Kidney (healthy mice; healthy female mice): 5.0 ± 0.7 % IA/g | Biodistribution Liver (healthy mice; healthy female mice): 3.3 ± 0.4 % IA/g | Biodistribution Lung (healthy mice; healthy female mice): 4.3 ± 1.6 % IA/g | Biodistribution Muscle (healthy mice; healthy female mice): 6.3 ± 3.4 % IA/g | Biodistribution Pancreas (healthy mice; healthy female mice): 7.6 ± 2.6 % IA/g | Biodistribution Spleen (healthy mice; healthy female mice): 2.7 ± 0.7 % IA/g | Biodistribution Stomach (healthy mice; healthy female mice): 1.7 ± 0.04 % IA/g | Biodistribution Blood (healthy mice; healthy male mice): 8.5 ± 0.1 % IA/g | Biodistribution Bone (healthy mice; healthy male mice): 1.5 ± 0.9 % IA/g | Biodistribution Heart (healthy mice; healthy male mice): 3.1 ± 0.04 % IA/g | Biodistribution Intestine (healthy mice; healthy male mice): 3.1 ± 0.2 % IA/g | Biodistribution Kidney (healthy mice; healthy male mice): 3.5 ± 0.4 % IA/g | Biodistribution Liver (healthy mice; healthy male mice): 2.3 ± 0.1 % IA/g | Biodistribution Lung (healthy mice; healthy male mice): 2.7 ± 0.6 % IA/g | Biodistribution Muscle (healthy mice; healthy male mice): 2.0 ± 0.3 % IA/g | Biodistribution Pancreas (healthy mice; healthy male mice): 8.6 ± 0.1 % IA/g | Biodistribution Spleen (healthy mice; healthy male mice): 2.3 ± 0.1 % IA/g | Biodistribution Stomach (healthy mice; healthy male mice): 2.0 ± 0.3 % IA/g
